Measured values from patent publication US7605272B2, “IGF-1R inhibitor” (Kyowa Hakko Kirin Co., Ltd., priority 2005, dated 2009).
Read-outs that look alike come from different tables or passages of the source.

Columns and labels:
NCI-H929 = test: Cytostatic activity on human multiple myeloma cell line NCI-H929 (WST-1); type: cell-based; conditions: Homo sapiens, 10 μmol/L, 72 hours, read-out: cytostatic rate (%) H929 (10 μmol/L)
Procedure, shortened: (§1)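 Cytostatic rate is 100 minus % growth relative to DMSO-only wells (100%) and blank wells (0%), read by WST-1 absorbance at 450/690 nm after 2 h. Compound at 1 or 10 μmol/L final was applied for 72 h at 37 °C to cells seeded 24 h earlier.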

IGF-1R = molecular target: T1, IGF-1R (Homo sapiens, UniProt P08069); test: IGF-1R inhibitory activity (kinase reaction, time-resolved fluoroimmunoassay); type: biochemical; conditions: test compound 10 μmol/L
T1 construct: purchased Upstate Co. 14-465
T1 sequence (P08069 959-1367 limits assumed): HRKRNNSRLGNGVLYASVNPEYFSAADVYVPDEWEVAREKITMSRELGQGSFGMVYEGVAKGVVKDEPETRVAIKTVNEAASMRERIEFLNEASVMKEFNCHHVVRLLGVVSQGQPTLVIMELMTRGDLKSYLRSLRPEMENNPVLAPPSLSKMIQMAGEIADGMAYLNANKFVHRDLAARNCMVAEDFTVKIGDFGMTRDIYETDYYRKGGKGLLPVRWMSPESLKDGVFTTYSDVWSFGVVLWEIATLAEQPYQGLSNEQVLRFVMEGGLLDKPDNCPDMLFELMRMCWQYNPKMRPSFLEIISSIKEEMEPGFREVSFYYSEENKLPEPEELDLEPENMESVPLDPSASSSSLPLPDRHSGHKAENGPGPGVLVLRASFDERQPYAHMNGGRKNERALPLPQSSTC
Procedure, shortened: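 Compounds were tested at a single 10 μmol/L concentration. Each was incubated with recombinant IGF-1R (200 μg/L), 10 mmol/L ATP, MgCl2/MnCl2 and Na3VO4 (pH 7.5) on immobilized poly(Glu-Tyr) peptide for 30 min at 24° C. Eu-anti-phosphotyrosine time-resolved fluorescence (340/615 nm) gave relative activity against no-compound and no-enzyme wells, reported as % inhibition.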

KMS-11 = test: Cytostatic activity on human multiple myeloma cell line KMS-11 (WST-1); type: cell-based; conditions: Homo sapiens, 10 μmol/L, 72 hours, read-out: cytostatic rate (%) KMS-11 (10 μmol/L)
Procedure, shortened: as §1

[1] = IGF-1R active recombinant enzyme

Row | SMILES | inhibition at 10 µM (NCI-H929; NCI-H929, 72 h) [%] | inhibition at 10 µM (IGF-1R; [1]) [%] | inhibition at 10 µM (KMS-11; KMS-11, 72 h) [%] | inhibition at 10 µM (IGF-1R) [%] | inhibition at 10 µM (NCI-H929; NCI-H929) [%] | inhibition at 10 µM (KMS-11; KMS-11) [%]
1 | COCCOc1ccc(C(=O)Nc2ccccc2/C=C/c2n[nH]c3ccccc23)cc1 [Compound 78, (E)-N-{2-[2-(1H-indazol-3-yl)vinyl]phenyl}-4-(2-methoxyethoxy)benzamide] | 114 | 100 | 107 | – | – | –
2 | N#Cc1ccc(C(=O)Nc2ccccc2/C=C/c2n[nH]c3ccccc23)cc1 [Compound 83, (E)-4-cyano-N-{2-[2-(1H-indazol-3-yl)vinyl]phenyl}benzamide] | 114 | – | 107 | 96.3 | – | –
3 | Nc1ccc(C(=O)Nc2ccccc2/C=C/c2n[nH]c3ccccc23)c(Cl)c1 [Compound 84, (E)-4-amino-2-chloro-N-{2-[2-(1H-indazol-3-yl)vinyl]phenyl}benzamide] | 113 | – | 107 | 100 | – | –
4 | CC(=O)N1CCN(C(=O)c2ccc(/C=C/c3n[nH]c4ccccc34)c(NC(=O)Cc3cccs3)c2)CC1 [Compound 89, (E)-N-{5-(4-acetylpiperazin-1-ylcarbonyl)-2-[2-(1H-indazol-3-yl)vinyl]phenyl}-2-(thiophen-2-yl)acetamide] | 114 | – | 138 | 98.4 | – | –
5 | CC(=O)N1CCN(C(=O)c2ccc(/C=C/c3n[nH]c4ccccc34)c(NC(=O)c3cc4ccccc4s3)c2)CC1 [Compound 90, (E)-N-{5-(4-acetylpiperazin-1-ylcarbonyl)-2-[2-(1H-indazol-3-yl)vinyl]phenyl}benzo[b]thiophene-2-carboxamide] | 114 | – | 136 | 97 | – | –
6 | CC(=O)N1CCN(C(=O)c2ccc(/C=C/c3n[nH]c4ccccc34)c(NC(=O)c3cccn3C)c2)CC1 [Compound 91, (E)-N-{5-(4-acetylpiperazin-1-ylcarbonyl)-2-[2-(1H-indazol-3-yl)vinyl]phenyl}-1-methyl-1H-pyrrole-2-carboxamide] | 115 | – | 144 | 98.7 | – | –
7 | COc1cccc(/C=C/c2n[nH]c3ccccc23)c1NC(=O)c1sccc1C [Compound 94, (E)-N-{2-[2-(1H-indazol-3-yl)vinyl]-6-methoxyphenyl}-3-methylthiophene-2-carboxamide] | 125 | – | 143 | 95.4 | – | –
8 | COc1cc(/C=C/c2n[nH]c3ccccc23)c(NC(=O)c2sccc2C)cc1OC [Compound 95, (E)-N-{2-[2-(1H-indazol-3-yl)vinyl]-4,5-dimethoxyphenyl}-3-methylthiophene-2-carboxamide] | 121 | – | 138 | 97.2 | – | –
9 | COc1cc(/C=C/c2n[nH]c3ccccc23)c(NC(=O)c2cccn2C)cc1OC [Compound 96, (E)-N-{2-[2-(1H-indazol-3-yl)vinyl]-4,5-dimethoxyphenyl}-1-methyl-1H-pyrrole-2-carboxamide] | 117 | – | 117 | 100 | – | –
10 | Cc1ccsc1C(=O)Nc1cc(N(C)C)ccc1/C=C/c1n[nH]c2ccccc12 [Compound 105, (E)-N-{5-dimethylamino-2-[2-(1H-indazol-3-yl)vinyl]phenyl}-3-methylthiophene-2-carboxamide] | 120 | – | 120 | 94.8 | – | –
11 | CN(C)c1ccc(/C=C/c2n[nH]c3ccccc23)c(NC(=O)c2cccn2C)c1 [Compound 107, (E)-N-{5-dimethylamino-2-[2-(1H-indazol-3-yl)vinyl]phenyl}-1-methyl-1H-pyrrole-2-carboxamide] | 119 | – | 119 | 92.8 | – | –
12 | Cc1ccsc1C(=O)Nc1ccc(O)cc1/C=C/c1n[nH]c2ccccc12 [Compound 110, (E)-N-{4-hydroxy-2-[2-(1H-indazol-3-yl)vinyl]phenyl}-3-methylthiophene-2-carboxamide] | 116 | – | 118 | 96.3 | – | –
13 | Cc1ccsc1C(=O)Nc1cc(C(=O)N2CCC(N)CC2)ccc1/C=C/c1n[nH]c2ccccc12 [Compound 111, (E)-N-{5-(4-aminopiperidin-1-ylcarbonyl)-2-[2-(1H-indazol-3-yl)vinyl]phenyl}-3-methylthiophene-2-carboxamide] | 120 | – | 112 | 98.1 | – | –
14 | Cc1ccsc1C(=O)Nc1cc(C(=O)N2CCCC2)ccc1/C=C/c1n[nH]c2ccccc12 [Compound 116, (E)-N-{2-[2-(1H-indazol-3-yl)vinyl]-5-(pyrrolidin-1-ylcarbonyl)phenyl}-3-methylthiophene-2-carboxamide] | 118 | – | 114 | 103 | – | –
15 | Cc1ccsc1C(=O)Nc1cc(C(=O)N(C)C)ccc1/C=C/c1n[nH]c2ccccc12 [Compound 117, (E)-N-{5-(N,N-dimethylcarbamoyl)-2-[2-(1H-indazol-3-yl)vinyl]phenyl}-3-methylthiophene-2-carboxamide] | 119 | – | 115 | 101 | – | –
16 | Cc1ccsc1C(=O)Nc1cc(C(=O)NC2CC2)ccc1/C=C/c1n[nH]c2ccccc12 [Compound 118, (E)-N-{5-(N-cyclopropylcarbamoyl)-2-[2-(1H-indazol-3-yl)vinyl]phenyl}-3-methylthiophene-2-carboxamide] | 116 | – | 114 | 102 | – | –
17 | Cc1ccsc1C(=O)Nc1cc(C(=O)N2CCC3(CC2)OCCO3)ccc1/C=C/c1n[nH]c2ccccc12 [Compound 119, (E)-N-{5-(1,4-dioxa-8-azaspiro[4,5]decane-8-carbonyl)-2-[2-(1H-indazol-3-yl)vinyl]phenyl}-3-methylthiophene-2-carboxamide] | – | – | – | 102 | 117 | 116
18 | COC1CCN(C(=O)c2ccc(/C=C/c3n[nH]c4ccccc34)c(NC(=O)c3sccc3C)c2)CC1 [Compound 120, (E)-N-{2-[2-(1H-indazol-3-yl)vinyl]-5-(4-methoxypiperidin-1-ylcarbonyl)phenyl}-3-methylthiophene-2-carboxamide] | 116 | – | 114 | 97.5 | – | –
19 | Nc1ccc(C(=O)Nc2cc3c(cc2/C=C/c2n[nH]c4ccccc24)OCO3)s1 [Compound 132, (E)-5-amino-N-{6-[2-(1H-indazol-3-yl)vinyl]benzo[1,3]dioxol-5-yl}thiophene-2-carboxamide] | 108 | – | 112 | 98 | – | –
20 | OCCOc1ccccc1/C=C/c1n[nH]c2ccccc12 [Compound 134, (E)-2-{2-[2-(1H-indazol-3-yl)vinyl]phenoxy}ethanol] | 92.8 | 93.4 | 52.5 | – | – | –
21 | N#Cc1ccccc1/C=C/c1n[nH]c2ccccc12 [Compound 136, (E)-2-[2-(1H-indazol-3-yl)vinyl]benzonitrile] | 87.7 | 85.3 | 38.4 | – | – | –
22 | C(=C\c1n[nH]c2ccccc12)/c1ccccc1N1CCOCC1 [Compound 137, (E)-3-[2-{2-(morpholin-4-yl)phenyl]vinyl}-1H-indazole] | 114 | 94.3 | 51.2 | – | – | –
